In US9206236B2, “Peptides for treating cancer” (Gene Signal International SA, priority 2010, dated 2015):

Legend:
[1] = Body weight and toxicity of mice bearing NCI-H460 tumors (Example 3); type: in vivo
Protocol: (§1) All experiments were reviewed by the Genopole's institutional animal care and use committee and were performed in accordance with institutional guidelines for animal care. Female BALB/c nu/nu mice (n=30) were used at 5-6 weeks of age. The animals were housed in laminar air-flow cabinets under pathogen-free conditions with a 12 h light/12 h dark schedule, and fed autoclaved standard chow and water ad libitum. […] Tumor cells (10^7 cells in 200 μl of HBSS) were injected subcutaneously into the right flanks of mice. […] At tumor volume about 150 mm^3, animals were randomized, and separated into five groups of five animals. Control mice (group 1) were intraperitoneally injected with vehicle (10% DMSO in buffer saline) every day. GS-0 was dissolved in vehicle and intraperitoneally injected (group 2) every day (12 injections). GS-2 was dissolved in vehicle and intraperitoneally injected (group 3) every day (12 injections). Tumor volume and body weight were measured every other day over the treatment period (12 days).

[2] = Body weight and toxicity of mice bearing NCI-H460 tumors (Example 2); type: in vivo
Protocol: as §1, with “mm3,” for “mm^3,”, “GS-1” for “GS-2”

[3] = Solubility of peptides in 10% DMSO in PBS; type: physicochemical; conditions: 1 mg of peptide/ml of 10% DMSO in PBS
Protocol: GS-1 as well as the control peptide GS-0 were solubilized in DMSO and the resulting solutions were diluted 10 times with phosphate buffer saline (PBS) to obtain a concentration of 1 mg of peptide/ml of 10% DMSO in PBS. At this concentration, all peptides were soluble in 10% DMSO.
GS-2 as well as the control peptide GS-0 were solubilized in DMSO and the resulting solutions were diluted 10 times with phosphate buffer saline (PBS) to obtain a concentration of 1 mg of peptide/ml of 10% DMSO in PBS. At this concentration, all peptides were soluble in 10% DMSO.

NCI-H460 tumors = assay: NCI-H460 tumor xenograft in nude mice, tumor volume (Example 3); type: in vivo
Protocol: H460 cell line has cytology compatible with human Non-Small Cell Lung Cancer (NSCL). Cells were grown in MEM medium containing 10% FCS at 37° C., 5% CO2 humidified atmosphere. The absence of mycoplasms was confirmed by using the PCR Mycoplasma Detection kit (Takara). All experiments were reviewed by the Genopole's institutional animal care and use committee and were performed in accordance with institutional guidelines for animal care. Female BALB/c nu/nu mice (n=30) were used at 5-6 weeks of age. The animals were housed in laminar air-flow cabinets under pathogen-free conditions with a 12 h light/12 h dark schedule, and fed autoclaved standard chow and water ad libitum. The NCI-H460 human NSCL cell line was obtained from American Type Culture Collection (ATCC) were grown in RPMI medium 1640 supplemented with 1 μM sodium pyruvate. Tumor cells (10^7 cells in 200 μl of HBSS) were injected subcutaneously into the right flanks of mice. After engraftment, tumor volume was measured by Vernier callipers, and calculated as described in Balsam A et al. (Balsari A et al. (2004) Eur J Cancer 40: 1275-1281). At tumor volume about 150 mm^3, animals were randomized, and separated into five groups of five animals. Control mice (group 1) were intraperitoneally injected with vehicle (10% DMSO in buffer saline) every day. GS-0 was dissolved in vehicle and intraperitoneally injected (group 2) every day (12 injections). GS-2 was dissolved in vehicle and intraperitoneally injected (group 3) every day (12 injections). Tumor volume and body weight were measured every other day over the treatment period (12 days). GS-2 as well as the control peptide GS-0 were solubilized in DMSO and the resulting solutions were diluted 10 times with phosphate buffer saline (PBS) to obtain a concentration of 1 mg of peptide/ml of 10% DMSO in PBS. At this concentration, all peptides were soluble in 10% DMSO.

mTOR = mTOR status in HMEC after incubation with peptides (anti-mTor antibody Ser2448); type: cell-based, human
Protocol: Human EC grown in EGM-2MV (80% confluence) were incubated with the peptides of the invention or vehicle for the indicated time, washed three times in cold PBS and directly lysed in 2 ml of ice-cold lysis buffer (10 mM Tris pH 7.5, 150 mM NaCl, 1 mM PMSF, 0.5 μg/ml leupeptin, 1 μg/ml pepstatin A, and 1 μg/ml aprotinin) by incubation for 30 min at 4° C. Cell lysate were spun at […] for 10 min, insoluble materials were discarded, and protein contents measured by Bradford assay of supernatants were adjusted. Cell lysate (1 ml) was precleared with 25 μl of protein G-plus agarose beads (Santa Cruz) for 30 min, and proteins were then immunoprecipitated by adding 2 μg of the indicated antibody and incubated for 1 hr. The immunocomplex was pulled down with protein G-plus agarose beads and the beads were washed three times with lysis buffer. The immunoprecipitates were separated by NuPAGE® 4-12% Bis-Tris gel electrophoresis under reducing conditions, transferred to PVDF membrane (Novex System, Invitrogen), and the membrane was blocked with 5% (w/v) non-fat milk in TBS containing 0.1% v/v Tween-20 for 1 hr.
The status of mTOR in the HMEC following incubation with peptides GS-0 and GS-1 was investigated.

[4] = 8 mg/kg intraperitoneally every day, 12 injections

Substance: Ac-NYICMG-NH2 [GS-0, NYICMG, reference compound]
- toxicity and body weight loss during treatment [1, 4]: No toxicity and no body weight loss
- Mean body weight D1 ([1]; Table 3, 8 mg/kg i.p. daily, day 1, in g): 20.91
- Mean body weight D3 ([1]; Table 3, 8 mg/kg i.p. daily, day 3, in g): 21.37
- Mean body weight D5 ([1]; Table 3, 8 mg/kg i.p. daily, day 5, in g): 21.65
- Mean body weight D7 ([1]; Table 3, 8 mg/kg i.p. daily, day 7, in g): 21.81
- Mean body weight D9 ([1]; Table 3, 8 mg/kg i.p. daily, day 9, in g): 22.52
- Mean body weight D11 ([1]; Table 3, 8 mg/kg i.p. daily, day 11, in g): 22.76
- Mean body weight D13 ([1]; Table 3, 8 mg/kg i.p. daily, day 13, in g): 22.36
- toxicity and body weight loss during treatment [2, 4]: No toxicity and no body weight loss
- Mean body weight D1 ([2]; Table 1, 8 mg/kg i.p. daily, day 1, in g): 20.91
- Mean body weight D3 ([2]; Table 1, 8 mg/kg i.p. daily, day 3, in g): 21.37
- Mean body weight D5 ([2]; Table 1, 8 mg/kg i.p. daily, day 5, in g): 21.65
- Mean body weight D7 ([2]; Table 1, 8 mg/kg i.p. daily, day 7, in g): 21.81
- Mean body weight D9 ([2]; Table 1, 8 mg/kg i.p. daily, day 9, in g): 22.52
- Mean body weight D11 ([2]; Table 1, 8 mg/kg i.p. daily, day 11, in g): 22.76
- Mean body weight D13 ([2]; Table 1, 8 mg/kg i.p. daily, day 13, in g): 22.36
- solubility in 10% DMSO [3]: soluble
- influence on the in vivo growth of the tumor NCI-H460 (in words) (NCI-H460 tumors; 8 mg/kg i.p. daily for 12 days): no significant influence
- mean tumor volume at the end of treatment (NCI-H460 tumors; 8 mg/kg i.p. daily for 12 days, n=5): 1114.83 ± 534.50 mm^3
- Mean tumor volume D1 (NCI-H460 tumors; Table 4, 8 mg/kg i.p. daily, day 1): 123 mm³
- Mean tumor volume D3 (NCI-H460 tumors; Table 4, 8 mg/kg i.p. daily, day 3): 233 mm³
- Mean tumor volume D5 (NCI-H460 tumors; Table 4, 8 mg/kg i.p. daily, day 5): 335 mm³
- Mean tumor volume D7 (NCI-H460 tumors; Table 4, 8 mg/kg i.p. daily, day 7): 402 mm³
- Mean tumor volume D9 (NCI-H460 tumors; Table 4, 8 mg/kg i.p. daily, day 9): 553 mm³
- Mean tumor volume D11 (NCI-H460 tumors; Table 4, 8 mg/kg i.p. daily, day 11): 751 mm³
- Mean tumor volume D13 (NCI-H460 tumors; Table 4, 8 mg/kg i.p. daily, day 13): 1110 mm³
- amounts of mTOR in HMEC relative to vehicle (mTOR): equivalent amounts of mTOR as cell incubated with vehicle
